# What was measured:
# [1] = Aqueous solubility; assay type: physicochemical
# Description: Table 5 presents the results.
# [2] = Solvent properties (density, boiling point, flash point, freezing point, viscosity); assay type: physicochemical
# Description: Isopropyl 2-hydroxy-4-(methylsulfinyl)butanoate (also called iC3SO) has the following properties.
# Green or regular hard surface cleaner or degreaser formulations containing commercial surfactants or a mixture (i.e., monomers, dimers, and short oligomers) of octyl 2-hydroxy-4-(methylsulfinyl)butanoate (also called “C8SO”) were formulated, as shown in Table 2 below. The density of C8SO is 1.08 g/mL.
# [3] = in water at 25° C. and atmospheric pressure
SMILES,"Solubility (wt/wt total) [1, 3]","Solubility (wt/wt total) ([1]; in water, marked *Theoretical)",also measured
CCCCCCCCNC(=O)C(O)CC[S+](C)[O-] (centres unmarked) [2-Hydroxy-4-(Methylsulfinyl)-N-Octylbutanamide],>50.0 wt %,,
CCCCOC(=O)C(O)CC[S+](C)[O-] (centres unmarked) [Butyl 2-Hydroxy-4-(Methylsulfinyl)Butanoate],,>50% wt %,
"CCCCOC(=O)C(O)CCSC (centres unmarked) [Butyl 2-hydroxy-4-(methylthio)butanoate, Butyl 2-Hydroxy-4-(Methylthio)Butanoate]",0.9 wt %,,
CCCCCCCCCCOC(=O)C(O)CCS(C)(=O)=O (centres unmarked) [Decyl 2-Hydroxy-4-(Methylsulfonyl)Butanoate],<0.1 wt %,,
CCCCCCOC(=O)C(O)CC[S+](C)[O-] (centres unmarked) [Hexyl 2-Hydroxy-4-(Methylsulfinyl)Butanoate],>50.0 wt %,,
CSCCC(O)C(=O)OC(C)C (centres unmarked) [Isopropyl 2-hydroxy-4-(methylthio)butanoate],2.5 wt %,,
COC(=O)C(O)CC[S+](C)[O-] (centres unmarked) [Methyl 2-Hydroxy-4-(Methylsulfinyl)Butanoate],,>50% wt %,
CCCCCCCCOC(=O)C(O)CC[S+](C)[O-] (centres unmarked) [Octyl 2-Hydroxy-4-(Methylsulfinyl)Butanoate],>50.0 wt %,,
"CC(C)OC(=O)C(O)CC[S+](C)[O-] (centres unmarked) [iC3SO, Isopropyl 2-hydroxy-4-(methylsulfinyl)butanoate]",,>50% wt %,Boiling Point [2]: 248° ° C.; Density [2]: 1.17 g/mL; Flash Point [2]: 194° ° C.; Freezing Point [2]: <−90° ° C.; Viscosity [2]: 519 cps
